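All cell lines were grown in 96-well plates and treated with compound for 48 hours. Here, GI50 denotes the concentration required for 50% inhibition of growth. At the TGI there is no net growth.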
Tests used:
Assay in all cases: NCI tumour cell line growth inhibition, 48 h
MALME-3M melanoma = tested on: MALME-3M melanoma
IGROV1 ovarian = tested on: IGROV1 ovarian
OVCAR-4 ovarian = tested on: OVCAR-4 ovarian
CAKI-1 renal = tested on: CAKI-1 renal
HT29 colon = tested on: HT29 colon
NCI-H23 lung = tested on: NCI-H23 lung
COLO 205 colon = tested on: COLO 205 colon
MOLT-4 leukemia = tested on: MOLT-4 leukemia
PC-3 prostate = tested on: PC-3 prostate
HS 578T breast = tested on: HS 578T breast

SMILES	TGI (MALME-3M melanoma) [µM]	TGI (IGROV1 ovarian) [µM]	TGI (OVCAR-4 ovarian) [µM]	TGI (CAKI-1 renal) [µM]	TGI (HT29 colon) [µM]	TGI (NCI-H23 lung) [µM]	TGI (COLO 205 colon) [µM]	TGI (MOLT-4 leukemia) [µM]	GI50 (IGROV1 ovarian) [µM]	GI50 (PC-3 prostate) [µM]	TGI (PC-3 prostate) [µM]	GI50 (HT29 colon) [µM]	GI50 (NCI-H23 lung) [µM]	GI50 (HS 578T breast) [µM]	TGI (HS 578T breast) [µM]	GI50 (COLO 205 colon) [µM]	GI50 (MOLT-4 leukemia) [µM]	GI50 (OVCAR-4 ovarian) [µM]	GI50 (CAKI-1 renal) [µM]	GI50 (MALME-3M melanoma) [nM]
NNC(=S)N/N=C(\c1nc2ccc(Cl)cc2[nH]c1=O)C(O)c1cccc([N+](=O)[O-])c1 (configuration not stated)	> 100	> 100	> 100	> 100	> 50.9	> 61.9	> 58.4	> 100	–	–	–	–	–	–	–	–	–	–	–	–
O=C1CC[C@@H]2[C@H]3CCC(=O)c4c3c(c3cccc(O)c3c4O)O[C@@]23C(=O)c2cccc(O)c2C(O)=C13	–	> 100	–	–	> 100	> 100	> 100	> 100	> 100	> 100	> 100	> 100	> 100	> 100	> 100	> 100	> 100	–	–	–
COC(=O)N1C=CC2=C(C)C3Nc4ccccc4C3C(C)=C2C1 (configuration not stated)	13.1	> 100	11.3	> 100	> 100	> 100	6.66	12.3	–	–	–	–	–	–	–	–	–	–	–	–
CC[P+](C)(C)CC	> 100	> 100	> 100	–	> 100	> 100	> 100	> 100	–	–	–	–	–	–	–	–	–	–	–	–
C=CCC(NCc1ccccc1)c1cn(C(=O)OCC)c2ccccc12 (configuration not stated)	–	71.7	> 100	41.6	> 100	43.6	> 100	38.1	18.5	22.9	96.4	29.6	17.7	20	63.8	28	10	51.5	18.5	–
N/N=C1\C(=O)N(c2ccc(Cl)c(Cl)c2)C(=O)C1C(=O)Nc1ccc(Cl)c(Cl)c1 (configuration not stated)	> 100	> 100	> 100	–	> 100	> 100	–	> 100	–	–	–	–	–	–	–	–	–	–	–	–
NC(=O)c1c(-c2ccccc2)c(-c2ccccc2)cc2c(=O)c3ccccc3[nH]c12	37.1	74.3	30.4	–	42.9	43.5	> 100	44.7	–	–	–	–	–	–	–	–	–	–	–	–
CC[C@@]1(O)C(=O)OCc2c1cc1n(c2=O)Cc2cc3c(N)c(OC)ccc3nc2-1	4.05	2.45	1.36	0.796	> 100	0.142	2.69	0.0711	0.223	–	–	0.205	0.0213	–	–	0.263	< 0.01	0.229	0.0251	236
CC(C)CC1CC2C(=O)N(c3ccccc3)C(=O)C2c2[nH]c3ccccc3c21 (configuration not stated)	37	61.9	> 38.5	72.7	> 100	> 80.8	> 100	> 58.7	–	–	–	–	–	–	–	–	–	–	–	–
CCOC(=O)C(c1ccsc1)P(=O)(OCC)OCC (configuration not stated)	60.8	–	> 100	27.9	39.7	36.7	26.7	> 100	–	–	–	–	–	–	–	–	–	–	–	–
COc1ccc(C)cc1-c1ccc(-c2cc(C)ccc2OC)o1	> 100	> 100	> 100	> 100	> 100	> 100	> 100	> 100	–	–	–	–	–	–	–	–	–	–	–	–

From PubChem BioAssay (NCI)
